Test in all cases: MST affinity measurement
In assay [1] the target is T1, MKP3^KBD (Homo sapiens, UniProt Q16828).
T1 construct: MKP3(1–154) (MKP3^KBD); made in house; host or cells: Escherichia coli BL21(DE3)
T1 sequence (Q16828 1-154): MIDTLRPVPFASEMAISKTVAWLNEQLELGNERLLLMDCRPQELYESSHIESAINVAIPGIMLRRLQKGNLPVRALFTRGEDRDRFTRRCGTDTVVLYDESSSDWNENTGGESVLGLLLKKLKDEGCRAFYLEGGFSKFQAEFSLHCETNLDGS
The note with it: one-site binding model, mean ± SD of three experiments. Here is the method:
(§1) MST measurements were performed using fluorescently labeled proteins and the inhibitor BCI (CAS: 1245792-51-1; TargetMol) on a Monolith instrument (NanoTemper Technologies). The RED–Tris–NTA second-generation dye was dissolved in MST buffer (20 mM Hepes, pH 7.4, 200 mM NaCl, and 0.05% Tween-20) to prepare a 5 μM stock solution. Fluorescent labeling of MKP proteins followed the standard protocol of the MO-L018 RED–Tris–NTA protein labeling kit, leveraging the His-tag–dye interaction.
(§2) The BCI compound was prepared as a 600 to 750 μM stock solution in MST buffer with 10% DMSO to enhance solubility, followed by a 16-point serial dilution. The diluted BCI solutions were thoroughly mixed with labeled MKP proteins (50 nM) at a 1:1 volume ratio, yielding a final volume of 10 μl. The reaction mixtures were incubated in the dark for 10 min at room temperature before being loaded into standard glass capillaries. Measurements were carried out on the Monolith instrument (100% LED, 40% IR laser power) with a 20 s laser on time. The normalized fluorescence values from triplicate measurements were averaged at each concentration and fitted to a 1:1 binding model using the KD model in MO.Affinity software (v3.0.5, NanoTemper Technologies) to determine the binding affinities between MKP proteins and the BCI inhibitor. The final reported Kd value represents the mean ± SD of Kd values obtained from three independent experiments, each fitted separately.

The target in assay [2] is T2, MKP2^KBD (Homo sapiens, UniProt Q13115).
T2 construct: MKP2(5–159) (MKP2^KBD); made in house; host or cells: Escherichia coli BL21(DE3)
T2 sequence (Q13115 5-159): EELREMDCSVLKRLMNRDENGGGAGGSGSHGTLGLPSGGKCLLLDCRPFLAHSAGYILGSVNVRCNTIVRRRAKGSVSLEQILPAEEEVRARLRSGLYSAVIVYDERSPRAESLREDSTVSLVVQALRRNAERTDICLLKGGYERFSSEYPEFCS
The note with it: one-site binding model, mean ± SD of three experiments. Here is the method: as §1, §2

For assay [3], the target named is T3, MKP3^FL (Homo sapiens, UniProt Q16828).
T3 construct: MKP3(1–381) (MKP3^FL); made in house; host or cells: Escherichia coli BL21(DE3)
T3 sequence (Q16828 1-381): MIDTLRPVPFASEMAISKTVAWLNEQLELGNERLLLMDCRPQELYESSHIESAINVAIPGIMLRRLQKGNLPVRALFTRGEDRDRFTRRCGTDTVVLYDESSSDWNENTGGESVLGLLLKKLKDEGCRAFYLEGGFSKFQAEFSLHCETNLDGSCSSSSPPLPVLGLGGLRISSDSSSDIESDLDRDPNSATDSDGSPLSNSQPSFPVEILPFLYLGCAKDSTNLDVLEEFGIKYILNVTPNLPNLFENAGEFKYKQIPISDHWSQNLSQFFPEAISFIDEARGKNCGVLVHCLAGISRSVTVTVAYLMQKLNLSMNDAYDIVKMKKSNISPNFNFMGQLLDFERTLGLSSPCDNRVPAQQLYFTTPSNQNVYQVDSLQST
The note with it: one-site binding model, mean ± SD of three experiments. Here is the method: as §1, §2

Assay [4] addresses T4, MKP5^KBD (Homo sapiens, UniProt Q9Y6W6).
T4 construct: MKP5(139–287) (MKP5^KBD); made in house; host or cells: Escherichia coli BL21(DE3)
T4 sequence (Q9Y6W6 139-287): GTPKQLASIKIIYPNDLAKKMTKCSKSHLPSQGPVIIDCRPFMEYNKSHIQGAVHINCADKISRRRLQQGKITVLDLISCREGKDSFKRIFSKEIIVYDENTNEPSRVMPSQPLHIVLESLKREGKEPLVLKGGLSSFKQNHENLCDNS
The note with it: one-site binding model, mean ± SD of three experiments. The procedure:
as §1, §2

In assay [5] the target is T5, MKPX^KBD (Homo sapiens, UniProt Q16829).
T5 construct: MKPX(1–140) (MKPX^KBD); made in house; host or cells: Escherichia coli BL21(DE3)
T5 sequence (Q16829 1-140 isoform Q16829-2): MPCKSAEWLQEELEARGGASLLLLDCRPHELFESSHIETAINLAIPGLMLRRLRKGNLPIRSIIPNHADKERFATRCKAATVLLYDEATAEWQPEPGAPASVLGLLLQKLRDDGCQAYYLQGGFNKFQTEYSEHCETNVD
The note with it: one-site binding model, mean ± SD of three experiments. Here is the method:
as §1, §2

Assay [6] has as its target T6, MKP1^KBD (Homo sapiens, UniProt P28562).
T6 construct: MKP1(1–141) (MKP1^KBD); made in house; host or cells: Escherichia coli BL21(DE3)
T6 sequence (P28562 1-141): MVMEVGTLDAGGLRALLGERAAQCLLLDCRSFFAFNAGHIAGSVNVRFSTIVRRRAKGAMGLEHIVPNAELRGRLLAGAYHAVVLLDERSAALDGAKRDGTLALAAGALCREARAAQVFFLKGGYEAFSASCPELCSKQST
The note with it: one-site binding model, mean ± SD of three experiments. The procedure: as §1, §2

For assay [7], the target named is T7, MKP3^CD (Homo sapiens, UniProt Q16828).
T7 construct: ^15N-labeled MKP3^1–154, MKP3^14–152, MKP3^204–350; made in house; host or cells: Escherichia coli BL21(DE3)
T7 sequence (Q16828 204-350): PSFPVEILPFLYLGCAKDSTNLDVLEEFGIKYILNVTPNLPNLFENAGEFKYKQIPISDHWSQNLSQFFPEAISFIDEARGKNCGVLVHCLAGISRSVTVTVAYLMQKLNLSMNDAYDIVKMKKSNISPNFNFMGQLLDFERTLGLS
The assay is classed as binding. The procedure:
as §1
as §2, with “The final reported Kd value represents the mean ± SD of Kd values obtained from three independent experiments, each fitted separately.” left out

The target of assay [8] is T8, MKP5^CD (Homo sapiens, UniProt Q9Y6W6).
T8 construct: MKP5(320–467) (MKP5^CD); made in house; host or cells: Escherichia coli BL21(DE3)
T8 sequence (Q9Y6W6 320-467): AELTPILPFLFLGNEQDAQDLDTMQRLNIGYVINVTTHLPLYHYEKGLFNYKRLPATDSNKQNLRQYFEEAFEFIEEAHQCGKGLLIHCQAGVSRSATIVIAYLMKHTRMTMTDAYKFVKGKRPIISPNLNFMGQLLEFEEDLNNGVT
The assay is classed as binding. The procedure:
as §1
as §2, with “The final reported Kd value represents the mean ± SD of Kd values obtained from three independent experiments, each fitted separately.” left out

“And” between values parts separate entries of the source, which are not always exact repeats. Equal values may be shown once. “Also recorded” adds a separate entry of the source.

One may read the Kd as a measure of binding affinity in units of concentration. Read a high Kd as a looser complex. Take `O=C1/C(=C/c2ccccc2)C(NC2CCCCC2)c2ccccc21` (centres unmarked) [BCI, (E)-2-benzylidene-3-(cyclohexylamino)-2,3-dihydro-1H-inden-1-one]: the dissociation constant (Kd) is 15 µM and ~15 µM in assay [1]; ~49 µM and 49 µM in assay [2]; 9.2 ± 1.8 µM in assay [3]; ~8.5 µM and 8.5 µM in assay [4]; ~14.1 µM and 14.1 µM in assay [5]; ~73.1 µM and 73.1 µM in assay [6]. In addition, the “binding by MST” value in assay [7] was “no detectable binding; also recorded: no binding was detected”; in assay [8], “no interaction was detected”.

Values taken from publication PMC12444472, “BCI inhibits MKP3 by targeting the kinase-binding domain and disrupting ERK2 interaction” (The Journal of Biological Chemistry, 2025).
